Here are results for two molecules from ChEMBL document CHEMBL1201862, “PubChem BioAssay data set” (2004).

The structures appear in SMILES notation. Calls of active or inactive are those of the source.

The target in experiment [1] is T1, Apoptotic protease-activating factor 1 (Homo sapiens, UniProt O14727).
T1 sequence (O14727 whole entry): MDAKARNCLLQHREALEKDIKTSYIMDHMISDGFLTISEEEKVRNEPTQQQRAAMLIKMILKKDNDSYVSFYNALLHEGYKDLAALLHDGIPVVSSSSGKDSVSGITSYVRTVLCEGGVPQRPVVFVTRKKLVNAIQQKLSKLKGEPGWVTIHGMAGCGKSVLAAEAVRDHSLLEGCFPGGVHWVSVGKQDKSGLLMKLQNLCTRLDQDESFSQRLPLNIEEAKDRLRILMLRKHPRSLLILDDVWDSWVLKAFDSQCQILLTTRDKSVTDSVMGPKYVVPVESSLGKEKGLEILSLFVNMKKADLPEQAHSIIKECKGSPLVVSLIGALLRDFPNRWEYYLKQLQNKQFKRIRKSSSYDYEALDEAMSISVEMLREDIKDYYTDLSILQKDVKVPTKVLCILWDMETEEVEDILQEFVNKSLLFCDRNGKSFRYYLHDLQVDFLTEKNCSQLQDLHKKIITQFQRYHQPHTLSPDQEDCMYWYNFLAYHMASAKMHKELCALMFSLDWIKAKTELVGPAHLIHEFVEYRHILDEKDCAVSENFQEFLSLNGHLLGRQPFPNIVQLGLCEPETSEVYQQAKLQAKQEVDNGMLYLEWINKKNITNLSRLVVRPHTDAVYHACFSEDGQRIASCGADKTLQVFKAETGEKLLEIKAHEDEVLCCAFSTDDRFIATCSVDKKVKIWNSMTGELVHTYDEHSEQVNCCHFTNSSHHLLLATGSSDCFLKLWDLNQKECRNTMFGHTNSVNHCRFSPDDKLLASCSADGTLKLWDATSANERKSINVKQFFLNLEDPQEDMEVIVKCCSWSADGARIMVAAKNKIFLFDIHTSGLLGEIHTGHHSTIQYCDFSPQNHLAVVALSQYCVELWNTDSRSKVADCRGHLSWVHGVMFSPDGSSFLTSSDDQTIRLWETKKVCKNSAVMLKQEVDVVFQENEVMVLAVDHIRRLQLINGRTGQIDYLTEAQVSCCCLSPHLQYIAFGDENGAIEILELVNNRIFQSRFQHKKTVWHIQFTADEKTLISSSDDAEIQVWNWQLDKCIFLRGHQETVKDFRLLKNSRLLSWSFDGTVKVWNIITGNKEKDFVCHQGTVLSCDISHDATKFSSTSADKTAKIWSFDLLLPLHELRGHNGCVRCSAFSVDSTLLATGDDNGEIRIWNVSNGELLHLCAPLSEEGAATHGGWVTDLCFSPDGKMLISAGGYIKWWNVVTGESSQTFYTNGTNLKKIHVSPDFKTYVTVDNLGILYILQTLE
The class given is functional.

In experiment [2] the target is Serine/threonine-protein phosphatase (Homo sapiens, UniProt Q9BPW0). In words: PP5 phosphatase inhibitors, dose response, biochemical, fluorescence (AID 2395).
The target of experiment [3] is T2, Oxysterols receptor LXR-beta (Homo sapiens, UniProt P55055).
T2 sequence (P55055 whole entry): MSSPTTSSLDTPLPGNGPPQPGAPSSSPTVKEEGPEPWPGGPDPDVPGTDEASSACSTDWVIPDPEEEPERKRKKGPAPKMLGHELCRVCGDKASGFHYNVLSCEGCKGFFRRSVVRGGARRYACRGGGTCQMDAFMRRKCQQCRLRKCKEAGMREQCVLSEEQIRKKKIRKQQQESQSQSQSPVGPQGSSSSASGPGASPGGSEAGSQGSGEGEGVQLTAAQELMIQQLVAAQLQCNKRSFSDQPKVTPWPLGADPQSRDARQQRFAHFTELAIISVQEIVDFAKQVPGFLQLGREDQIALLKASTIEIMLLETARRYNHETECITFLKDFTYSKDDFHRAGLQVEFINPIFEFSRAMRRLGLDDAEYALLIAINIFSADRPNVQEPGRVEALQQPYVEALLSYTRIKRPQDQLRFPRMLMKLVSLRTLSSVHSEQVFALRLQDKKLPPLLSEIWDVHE
Description: LXR agonists, Gal4 luciferase reporter, dose response, counter-screen for ssDAF-12 agonist project, cell-based, luminescence, HEK293, S. stercoralis campaign (AID 720737). It counts as functional. As to conditions: read-out: IC50 (the source's name).

The nature of experiment [4]: Counterscreen for IDE inhibitors: Luminescence-based cell-based high throughput dose response assay to identify compounds that are cytotoxic to HEK cells. [Related pubchem assays: 434962 (Primary screen (IDE inhibitors in singlicate)), 449730 (Counterscreen (Cytotoxicity in triplicate)), 435028 (Confirmation (IDE inhibitors in triplicate)) …. The class given is functional. The conditions noted are these: HEK293.

Experiment [5] deals with T2, Oxysterols receptor LXR-beta. The class given is functional, cell-based.
The nature of experiment [6]: Luminescence-based cell-based high throughput dose response assay to identify activators of the DAF-12 from the parasite S. stercoralis (ssDAF-12). It counts as functional.
For the next experiment, the target named is T3, Insulin-degrading enzyme (Homo sapiens, UniProt P14735).
T3 sequence (P14735 whole entry): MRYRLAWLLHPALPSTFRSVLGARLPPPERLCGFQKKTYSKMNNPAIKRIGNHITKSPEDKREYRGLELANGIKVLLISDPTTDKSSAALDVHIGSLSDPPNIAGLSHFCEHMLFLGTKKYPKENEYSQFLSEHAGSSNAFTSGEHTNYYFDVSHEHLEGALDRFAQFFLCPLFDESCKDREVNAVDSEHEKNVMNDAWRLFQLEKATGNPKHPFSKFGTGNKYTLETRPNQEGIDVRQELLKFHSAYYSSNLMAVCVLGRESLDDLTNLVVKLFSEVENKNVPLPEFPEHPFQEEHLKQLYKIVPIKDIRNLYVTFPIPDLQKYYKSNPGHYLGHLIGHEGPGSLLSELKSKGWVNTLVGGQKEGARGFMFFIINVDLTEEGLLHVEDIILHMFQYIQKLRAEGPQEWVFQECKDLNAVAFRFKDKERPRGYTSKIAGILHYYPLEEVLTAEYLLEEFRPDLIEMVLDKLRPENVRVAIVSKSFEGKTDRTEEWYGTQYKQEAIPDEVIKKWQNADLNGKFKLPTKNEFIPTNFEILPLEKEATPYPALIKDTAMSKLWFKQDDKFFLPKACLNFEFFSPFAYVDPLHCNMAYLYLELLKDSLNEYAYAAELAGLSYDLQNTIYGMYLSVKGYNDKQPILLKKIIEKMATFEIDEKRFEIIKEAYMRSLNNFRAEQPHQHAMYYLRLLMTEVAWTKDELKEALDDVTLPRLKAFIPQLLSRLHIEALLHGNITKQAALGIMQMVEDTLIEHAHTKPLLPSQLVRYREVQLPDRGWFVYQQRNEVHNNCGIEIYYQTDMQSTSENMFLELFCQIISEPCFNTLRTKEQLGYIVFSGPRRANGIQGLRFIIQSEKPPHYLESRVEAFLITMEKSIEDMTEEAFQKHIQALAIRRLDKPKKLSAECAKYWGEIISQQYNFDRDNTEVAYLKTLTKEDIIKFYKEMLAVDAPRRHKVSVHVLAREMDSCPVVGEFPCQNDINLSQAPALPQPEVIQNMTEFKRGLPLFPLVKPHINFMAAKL
In words: Dose Response: Fluorescence polarization-based cell-based high throughput dose response assay for inhibitors of insulin-degrading enzyme (IDE). [Related pubchem assays: 434962 (Primary screen (IDE inhibitors in singlicate)), 449730 (Counterscreen (Cytotoxicity in triplicate)), 435028 (Confirmation (IDE inhibitors in triplicate)), 434984 (Summary …. The class given is functional.

Sequence of Serine/threonine-protein phosphatase (Q9BPW0 whole entry): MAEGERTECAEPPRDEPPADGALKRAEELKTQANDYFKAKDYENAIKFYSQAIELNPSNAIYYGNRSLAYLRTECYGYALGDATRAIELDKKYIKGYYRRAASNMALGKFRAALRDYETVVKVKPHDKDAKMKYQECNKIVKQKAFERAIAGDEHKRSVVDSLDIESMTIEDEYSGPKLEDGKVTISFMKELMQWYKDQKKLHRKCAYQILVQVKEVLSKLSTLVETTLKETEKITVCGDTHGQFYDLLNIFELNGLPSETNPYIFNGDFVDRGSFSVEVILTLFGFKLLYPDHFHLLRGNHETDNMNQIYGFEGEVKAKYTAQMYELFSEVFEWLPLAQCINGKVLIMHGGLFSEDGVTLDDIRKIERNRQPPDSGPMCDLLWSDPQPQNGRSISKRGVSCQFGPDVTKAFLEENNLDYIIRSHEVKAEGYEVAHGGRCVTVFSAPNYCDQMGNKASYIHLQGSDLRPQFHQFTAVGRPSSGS

With `COc1ccc(/C=N/Nc2cc(N(C)C)nc(N(C)C)n2)cc1`, the IC50 is 2.36 µM (active) in experiment [1] and 4.01 µM (active) in experiment [2].
`C/C(=N\c1cccc(C)c1)c1sc2ccccc2c1O`: the EC50 in experiment [3] and in experiment [5] was > 67.6 µM (inactive) each time. For the same molecule, the IC50 in experiment [4] is 43.1 µM (not active); in experiment [6] it was > 67.6 µM (inactive); on Insulin-degrading enzyme it was 22.7 µM (not active).
